Experimental data taken from patent publication US20240009173A1, “Use of 5-HT3-Targeting Drugs for Treatment of Acute Kidney Injury” (priority 2020, published 2024).
Read-outs that look alike come from different tables or passages of the source.

Legend:
ICU patients with AKI = conditions: cited from earlier work
patients with AKI [1] = conditions: human, in vivo
all ICU patients = conditions: cited from earlier work
patients with AKI [2] = conditions: human, in vivo; remark: listed apart in the source
patients with AKI [3] = tested on: patients with AKI; set-up: species or system human; conditions: in vivo
[4] = literature and/or clinical trials

| Compound | Reported for protecting effect in ICU patients with AKI (ICU patients with AKI; [4]) | Death rate in eICU database (patients with AKI [1]) | Reported for protecting effect in all ICU patients (all ICU patients; [4]) | Death rate in MIMIC III database (patients with AKI [2]) | Coefficient (patients with AKI [3]) | Reported for protecting effect in ICU patients with AKI (ICU patients with AKI) | Reported for protecting effect in all ICU patients (all ICU patients) |
| --- | --- | --- | --- | --- | --- | --- | --- |
| OC[C@H]1O[C@@H](O[C@@H]2[C@@H](CO)OC(O)(CO)[C@H]2O)[C@H](O)[C@@H](O)[C@H]1O (mixture of isomers) [Lactulose] | N | 233.56 per 1,000 patients | N | 326.35 per 1,000 patients | – | – | – |
| CC(=O)Nc1ccc(O)cc1 [Acetaminophen] | N | 123.47 per 1,000 patients | N | 181.26 per 1,000 patients | −0.040 | – | – |
| CC(C)(C)NCC(O)c1ccc(O)c(CO)c1 (stereo not shown) [Albuterol] | – | 174.59 per 1,000 patients | – | 257.20 per 1,000 patients | – | – | – |
| CCCCc1oc2ccccc2c1C(=O)c1cc(I)c(OCCN(CC)CC)c(I)c1 [Amiodarone] | N | 269.89 per 1,000 patients | N | 338.95 per 1,000 patients | 0.090 | – | – |
| CC(=O)Oc1ccccc1C(=O)O [Aspirin] | – | 126.32 per 1,000 patients | – | 178.97 per 1,000 patients | – | – | – |
| CC(C)c1c(C(=O)Nc2ccccc2)c(-c2ccccc2)c(-c2ccc(F)cc2)n1CC[C@@H](O)C[C@@H](O)CC(=O)O [Atorvastatin] | – | 88.66 per 1,000 patients | – | 156.06 per 1,000 patients | – | – | – |
| CC(=O)Oc1ccc(C(c2ccc(OC(C)=O)cc2)c2ccccn2)cc1 [Bisacodyl] | – | 156.59 per 1,000 patients | – | 194.46 per 1,000 patients | −0.021 | – | – |
| C[C@H](CS)C(=O)N1CCC[C@H]1C(=O)O [Captopril] | Y^19 | – | Y^18 | 133.04 per 1,000 patients | −0.044 | – | – |
| CO/N=C(\C(=O)N[C@@H]1C(=O)N2C(C(=O)[O-])=C(C[N+]3(C)CCCC3)CS[C@H]12)c1csc(N)n1 [Cefepime] | – | 228.51 per 1,000 patients | – | 340.81 per 1,000 patients | – | – | – |
| [H]/N=C(\N/C(=N/[H])NCCCCCCNC(=N)NC(=N)Nc1ccc(Cl)cc1)Nc1ccc(Cl)cc1 [Chlorhexidine] | – | 222.98 per 1,000 patients | – | 328.48 per 1,000 patients | – | – | – |
| C[C@@H]1C[C@H]2[C@@H]3CCC4=CC(=O)C=C[C@]4(C)[C@@]3(F)[C@@H](O)C[C@]2(C)[C@@]1(O)C(=O)CO [Dexamethasone] | – | 58.14 per 1,000 patients | – | 375 per 1,000 patients | – | – | – |
| COc1ccc([C@@H]2Sc3ccccc3N(CCN(C)C)C(=O)[C@@H]2OC(C)=O)cc1 [Diltiazem] | – | 121.74 per 1,000 patients | – | 274.96 per 1,000 patients | – | – | – |
| CCCCC(CC)COC(=O)CC(C(=O)OCC(CC)CCCC)S(=O)(=O)O (stereo not shown) [Docusate] | N | 136.48 per 1,000 patients | N | 178.57 per 1,000 patients | −0.028 | – | – |
| NC(N)=Nc1nc(CSCCC(N)=NS(N)(=O)=O)cs1 [Famotidine] | – | 184.42 per 1,000 patients | – | 260.79 per 1,000 patients | – | – | – |
| OC(Cn1cncn1)(Cn1cncn1)c1ccc(F)cc1F [Fluconazole] | Y^6 | – | Y^5 | 333.33 per 1,000 patients | – | – | – |
| NS(=O)(=O)c1cc(C(=O)O)c(NCc2ccco2)cc1Cl [Furosemide] | Y^8 | 120.87 per 1,000 patients | Y^7 | 214.64 per 1,000 patients | −0.036 | – | – |
| O=C(CCCN1CCC(O)(c2ccc(Cl)cc2)CC1)c1ccc(F)cc1 [Haloperidol] | N | 201.23 per 1,000 patients | N | 194.85 per 1,000 patients | −0.063 | – | – |
| NNc1nncc2ccccc12 [Hydralazine] | – | 80.60 per 1,000 patients | – | 155.12 per 1,000 patients | −0.035 | – | – |
| CC(C)[N+]1(C)[C@@H]2CC[C@H]1C[C@@H](OC(=O)C(CO)c1ccccc1)C2 (stereo partly shown) [Ipratropium] | – | 172.83 per 1,000 patients | – | 258.87 per 1,000 patients | – | – | – |

| Compound | Reported for protecting effect in ICU patients with AKI (ICU patients with AKI; [4]) | Death rate in eICU database (patients with AKI [1]) | Reported for protecting effect in all ICU patients (all ICU patients; [4]) | Death rate in MIMIC III database (patients with AKI [2]) | Coefficient (patients with AKI [3]) | Reported for protecting effect in ICU patients with AKI (ICU patients with AKI) | Reported for protecting effect in all ICU patients (all ICU patients) |
| --- | --- | --- | --- | --- | --- | --- | --- |
| C[C@H]1COc2c(N3CCN(C)CC3)c(F)cc3c(=O)c(C(=O)O)cn1c23 [Levofloxacin] | – | 146.84 per 1,000 patients | – | 270.20 per 1,000 patients | – | – | – |
| N[C@@H](Cc1cc(I)c(Oc2cc(I)c(O)c(I)c2)c(I)c1)C(=O)O [Levothyroxine] | – | 109.02 per 1,000 patients | – | 218.39 per 1,000 patients | – | – | – |
| NCCCC[C@H](N[C@@H](CCc1ccccc1)C(=O)O)C(=O)N1CCC[C@H]1C(=O)O [Lisinopril] | Y^15 | 21.71 per 1,000 patients | Y^14 | 53.11 per 1,000 patients | −0.049 | – | – |
| O=C1Nc2ccc(Cl)cc2C(c2ccccc2Cl)=NC1O (stereo not shown) [Lorazepam] | – | 228.92 per 1,000 patients | – | 285.59 per 1,000 patients | 0.031 | N | N |
| O=S(=O)([O-])[O-].[Mg+2] [Magnesium Sulfate] | – | 172.14 per 1,000 patients | – | 203.36 per 1,000 patients | −0.054 | Y^4 | Y^3 |
| C[C@@H](O)[C@H]1C(=O)N2C(C(=O)O)=C(S[C@@H]3CN[C@H](C(=O)N(C)C)C3)[C@H](C)[C@H]12 [Meropenem] | Y^13 | 269.96 per 1,000 patients | Y^12 | 460.50 per 1,000 patients | 0.076 | – | – |
| COCCc1ccc(OCC(O)CNC(C)C)cc1 (stereo not shown) [Metoprolol] | N | 107.87 per 1,000 patients | Y^11 | 169.99 per 1,000 patients | −0.051 | – | – |
| Cc1ncc([N+](=O)[O-])n1CCO [Metronidazole] | – | 230.12 per 1,000 patients | – | 338.05 per 1,000 patients | – | – | – |
| O=[N+]([O-])OCC(CO[N+](=O)[O-])O[N+](=O)[O-] [Nitroglycerin] | – | 758.55 per 1,000 patients | – | 192.42 per 1,000 patients | – | N | N |
| COc1ccnc(C[S+]([O-])c2nc3ccc(OC(F)F)cc3[nH]2)c1OC (stereo not shown) [Pantoprazole] | – | 151.82 per 1,000 patients | – | 254.46 per 1,000 patients | −0.025 | – | – |
| CC1=C(C/C=C(\C)CCC[C@H](C)CCC[C@H](C)CCCC(C)C)C(=O)c2ccccc2C1=O [Phytonadione] | N | 335.33 per 1,000 patients | Y | 364.17 per 1,000 patients | – | – | – |
| CCN1CCN(C(=O)N[C@@H](C(=O)N[C@@H]2C(=O)N3[C@@H]2SC(C)(C)[C@@H]3C(=O)O)c2ccccc2)C(=O)C1=O [Piperacillin] | N | 200.39 per 1,000 patients | Y | 336.96 per 1,000 patients | – | – | – |
| C[C@]12C=CC(=O)C=C1CC[C@@H]1[C@@H]2C(=O)C[C@@]2(C)[C@H]1CC[C@]2(O)C(=O)CO [Prednisone] | – | 60.49 per 1,000 patients | – | 191.30 per 1,000 patients | – | – | – |
| CC(C)c1cccc(C(C)C)c1O [Propofol] | – | 261.45 per 1,000 patients | – | 287.82 per 1,000 patients | – | Y^17 | Y^16 |
| C=CC[C@@H]1/C=C(\C)C[C@H](C)C[C@H](OC)[C@H]2O[C@@](O)(C(=O)C(=O)N3CCCC[C@H]3C(=O)O[C@H](/C(C)=C/[C@@H]3CC[C@@H](O)[C@H](OC)C3)[C@H](C)[C@@H](O)CC1=O)[C@H](C)C[C@@H]2OC [Tacrolimus] | – | 40 per 1,000 patients | – | 153.28 per 1,000 patients | – | – | – |
| CN[C@H](CC(C)C)C(=O)N[C@H]1C(=O)N[C@@H](CC(N)=O)C(=O)N[C@H]2C(=O)N[C@H]3C(=O)N[C@H](C(=O)N[C@H](C(=O)O)c4cc(O)cc(O)c4-c4cc3ccc4O)[C@H](O)c3ccc(c(Cl)c3)Oc3cc2cc(c3O[C@@H]2O[C@H](CO)[C@@H](O)[C@H](O)[C@H]2O[C@H]2C[C@](C)(N)[C@H](O)[C@H](C)O2)Oc2ccc(cc2Cl)[C@H]1O [Vancomycin] | – | 229.29 per 1,000 patients | – | 300.03 per 1,000 patients | – | – | – |
| Glucagon | – | 129.74 per 1,000 patients | – | 176.04 per 1,000 patients | −0.050 | – | – |
| Insulin | – | 172.01 per 1,000 patients | – | 241.12 per 1,000 patients | – | – | – |
